Data reported in patent US6896895B2, “Carotenoid esters, carotenoid-enriched feeds, and methods of pigmenting foods and foodstuffs” (DSM IP Assets B.V., priority 2000, dated 2005).

Legend:
[1] = Carotenoid ester content and deposition rate in egg yolk of laying hens (HPLC); type: in vivo, laying hens (ISA Brown); settings: egg yolk; for Deposition Rate Target Values % of Controls / Ethyl β-apo-8′-carotenoate Equivalents % of Controls: Table 8; for Deposition Rate % of Controls: Table 10
Description: (§1) Pigmentation efficacy was assessed in egg yolk, in the back skin of the broiler carcass, and in broiler shanks by reflectance colorimetry accompanied by visual scoring (Roche Colour Fan). The deposition of the ethyl-β-apo-8′-carotenoate (control) and the other carotenoid esters was determined in egg yolk and in the broiler back skin. In addition, the carotenoid levels in plasma and abdominal fat were measured.
Each year in February the pigmentation trials are started with a new flock of layers.
(§2) Preceding the trials the hens were fed a low carotenoid basal diet (produced at the CRNA) without carotenoid supplementation for at least 28 days. During the trials, the control group received the low carotenoid basal diet containing less than 2 mg total xanthophylls per kg of feed. The other animals were fed this diet supplemented with the appropriate pigments for three weeks. The diet was given to the animals ad libitum in mash form. The hens had free access to tap water.
Peaks were related to all-E- and Z-isomers of the various carotenoid esters by chromatography of heat-isomerized solutions of the respective reference substances in n-hexane. The HPLC system was calibrated with the all-E-isomer of ethyl β-apo-8′-carotenoate. The response factor of the various derivatives was deduced from that of ethyl β-apo-8′-carotenoate taking into account the respective molecular weight. The content of the Z-isomer fractions was calculated based on the response of the all-E-isomer and using a correction factor of 1.4 to account for the lower specific absorbance of the Z-isomers.
(§3) The HPLC-system for in-feed analysis was also used to quantify the carotenoid esters in egg yolk, broiler tissues, and broiler plasma, but the extraction procedure was different for the various matrices.
For the extraction of egg yolk, 10 g of pooled and homogenised yolk were mixed with 10 ml of demineralized water using a dispersion instrument (Polytron). 1.0 g of diluted egg yolk was introduced into a 10 ml test tube with 1.0 ml of demineralized water and 2.0 ml of ethanol, and the contents were mixed on a Vortex shaker. After addition of 4.0 ml of n-hexane, the mixture was further treated as described for plasma.

[2] = system: egg yolk; test: Egg yolk colour: reflectance colorimetry and Roche Yolk Colour Fan; type: in vivo, laying hens (ISA Brown); settings: egg yolk, laying hens, 5.0 mg/kg feed
Description: as §1
The trials were carried out following the standard experimental design used for egg yolk pigmentation trials at the Roche Research Center for Animal Nutrition (CRNA, F-68305 Village-Neuf, France). Each year in February the pigmentation trials are started with a new flock of layers. At the beginning of the trials the age of the laying hens (192 birds, type ‘ISA Brown’) were as follows:
as §2, with “water. Beside the unsupplemented control treatment, treatments were carried out involving the provision of supplemented feed, the results of these treatments being presented in Tables 7-9.” for “water.”
Egg yolk color was assessed as described by Steinberg, et al. (Arch. Geflügelk 64 (4), 180-187 (2000)). The yolks were manually separated from the whites of the eggs. The isolated yolks of three to six eggs were combined, weighed, and stirred with a glass rod until the color appeared homogeneous. The color hue was visually scored using the Roche Yolk Colour Fan (RYCF, version 1993). An aliquot of the pooled egg yolks was transferred into a glass cuvette yielding an approximately 2 cm thick layer. The color was then measured by means of a Dr. Lange Xeno Color LS 100 spectro-colorimeter with diffuse D65-illumination and a 8° viewing angle.
(§4) The color data were expressed as CIE L*a*b*-values including h*(hue) and C* (chroma). The values given in the tables per treatment and trial represent averages of color measurements of four egg yolk pools, ten broiler back skins, or ten broiler shanks (5 males and 5 females).

[3] = system: skin and shanks of broilers; test: Reflectance colorimetry and visual classification of skin and shanks of broilers; type: in vivo, broiler chickens (Ross 308, Ross 508); design: key to Shanks Visual Classification / Skin Visual Classification: −; (+); +; ++ = good color; o = orange; settings: dry carcasses, average over doses, Table 6
Description: as §1
(§5) The trials were carried out using chickens of the type Ross 308 (trials MC-24/98 and MC-02/99) and Ross 508 (trials MC-11/99, MC-16/99, MC-24/99, and MC-03/00) (Couvir de la Bohardière, F-49290 Saint Laurent de la Plaine). One-day old broiler chickens, separated by sex, were divided by weight into experimental groups of ten animals each and reared in floor pens littered with wood shavings. The chickens were fed a low carotenoid basal grower diet until day 22 (trials MC-24/98, MC-02/99, and MC-11/99) or until day 15 (trials MC-16/99, MC-24/99, and MC-03/00). The low carotenoid basal grower diet contained less than 2 mg total xanthophylls per kg of feed, and its composition is described in Table 2. For the subsequent experimental period of three weeks, the birds received the basal diet supplemented with an appropriate pigment. The feed was given in the form of crumbled pellets during the first week and as pellets thereafter. The animals had unrestricted access to feed and water. A given treatment involved one group of male and one group of female chickens. Each group of chickens was weighed at day 22 (trials MC-24/98, MC-02/99, and MC-11/99) or day 15 (trials MC-16/99, MC-24/99, and MC-03/00) and on day 43. On day 42, five chickens per group were selected at random, labelled, and blood samples were taken from the jugular vein. At the end of the experiment (day 44) the animals were slaughtered in a commercial slaughterhouse (Freyburger, Dannemarie, France). The following day, the color of the skin (hind back of carcasses) and the shanks of the labelled chicken were measured by reflectance colorimetry (Minolta CR 200 apparatus, CIE-Lab system). Samples of the dorsal skin and abdominal fat were obtained, pooled for each experimental group, and the carotenoid concentration was determined. The concentration of carotenoids in feed, plasma, skin, and abdominal fat was determined by standard procedures as described after Tables 1 and 2.
The color of broiler skin and shanks was measured using a tristimulus Minolta CR-300 Chromameter with diffuse D65-illumination and a 0° viewing angle. The color of the skin was read at three different points on the back of the dry broiler carcasses and average values of the triple measurements were recorded. The color of shanks was measured using single measurements at the ball between the toes.
as §4

[4] = Carotenoid ester content in plasma, back skin and abdominal fat of broilers (HPLC); type: in vivo, broiler chickens (Ross 308, Ross 508); settings: average over doses, Table 4
Description: as §1, §5
The content of the various carotenoid esters in feed was determined according to the method of Schierle, et al. (J. Schierle , N. Faccin, V. Riegert, Analytical Methods for Vitamins and Carotenoids in Feed, Revised supplement: Determination of Stabilized Apocarotenoic Ester and Canthaxanthin in Premixes and Feeds, Roche publication no. 50771 (1995), publicly available from. F. Hoffmann-La Roche Ltd., CH-4070 Basel). This method was modified in that the mobile phase of the normal-phase HPLC contained 0.5% instead of 7% acetone in n-hexane, improving the separation of the E/Z-isomers of the carotenoid esters. Peaks were related to all-E- and Z-isomers of the various carotenoid esters by chromatography of heat-isomerized solutions of the respective reference substances in n-hexane. The HPLC system was calibrated with the all-E-isomer of ethyl β-apo-8′-carotenoate. The response factor of the various derivatives was deduced from that of ethyl β-apo-8′-carotenoate taking into account the respective molecular weight. The content of the Z-isomer fractions was calculated based on the response of the all-E-isomer and using a correction factor of 1.4 to account for the lower specific absorbance of the Z-isomers.
as §3
For plasma extraction, 1.0 g of the well-mixed plasma sample was introduced into a 10 ml test tube with 1.0 ml of demineralized water and 4.0 ml of ethanol, and the contents mixed on a Vortex shaker. […]

Row | Compound | Deposition Rate Target Values % of Controls ([1]; trial H-25/99, 5.0 mg/kg feed) [%] | Ethyl β-apo-8′-carotenoate Equivalents % of Controls ([1]; trial H-25/99, 5.0 mg/kg feed) [%] | Deposition Rate % of Controls ([1]; trial H-25/99, 5.0 mg/kg feed) [%] | Color Fan Value % of Controls ([2]; trial H-25/99, Table 8) [%] | Chroma C*ab % of Controls ([2]; trial H-25/99, Table 10) [%] | Color Fan Value % of Controls ([2]; trial H-25/99, Table 10) [%] | Color Hue h*ab % of Controls ([2]; trial H-25/99, Table 10) [%] | Shanks Chroma C*ab % of Controls [3] [%] | Shanks Color Hue h*ab % of Controls [3] [%] | Shanks Visual Classification [3] | Skin Chroma C*ab % of Controls [3] [%] | Skin Color Hue h*ab % of Controls [3] [%] | Skin Visual Classification [3] | Analytical Content as Equivalent of Ethyl β-apo-8′-carotenoate in % of control Fat [4] [%] | Analytical Content as Equivalent of Ethyl β-apo-8′-carotenoate in % of control Plasma [4] [%] | Analytical Content as Equivalent of Ethyl β-apo-8′-carotenoate in % of control Skin [4] [%] | other results
1 | CC(C=CC=C(C)C=CC1=C(C)CCCC1(C)C)=CC=CC=C(C)C=CC=C(C)C(=O)OC(C)CC(C)C (stereo not drawn) [(12), 4-methyl-2-pentyl beta-apo-8′-carotenoate] | 89 | 79 | 89 | 101 | 74 | 101 | 109 | 95 | 101 | + | 91 | 99 | + | 49 | 66 | 85 | 
2 | CC(C=CC=C(C)C=CC1=C(C)CCCC1(C)C)=CC=CC=C(C)C=CC=C(C)C(=O)OCC(C)(C)C [(8), 2,2-dimethylpropyl beta-apo-8′-carotenoate] | 89 | 81 | 89 | 108 | 94 | 108 | 101 | 98 | 101 | (+) | 98 | 100 | (+) | 62 | 78 | 76 | 
3 | CC(C=CC=C(C)C=CC1=C(C)CCCC1(C)C)=CC=CC=C(C)C=CC=C(C)C(=O)OCCC(C)C [(6), isoamyl beta-apo-8′-carotenoate] |  |  |  |  |  |  |  | 86 | 101 | (+) | 89 | 99 | (+) | 35 | 62 | 38 | Deposition Rate Target Values % of Controls ([1]; trial H-18/99, 5.0 mg/kg feed): 90%; Ethyl β-apo-8′-carotenoate Equivalents % of Controls ([1]; trial H-18/99, 5.0 mg/kg feed): 80%; Deposition Rate % of Controls ([1]; trial H-18/99, 5.0 mg/kg feed): 90%; Color Fan Value % of Controls ([2]; trial H-18/99, Table 8): 116%; Chroma C*ab % of Controls ([2]; trial H-18/99, Table 10): 105%; Color Fan Value % of Controls ([2]; trial H-18/99, Table 10): 116%; Color Hue h*ab % of Controls ([2]; trial H-18/99, Table 10): 101%
4 | CCCC(C)COC(=O)C(C)=CC=CC(C)=CC=CC=C(C)C=CC=C(C)C=CC1=C(C)CCCC1(C)C (stereo not drawn) [(11), 2-methyl-1-pentyl beta-apo-8′-carotenoate] | 112 | 96 | 112 | 116 | 101 | 116 | 103 | 92 | 101 | (+) | 87 | 95 | + | 50 | 59 | 69 | 
